From patent US20230322721A1 (OSLO UNIVERSITETSSYKEHUS HF, priority 2020, published 2023)
pIC50: −log10 of the molar value. Read-outs that look alike come from different tables or passages of the source.

Test system: HEK293
Assay: Cellular IC50 HEK293
Format: cell-based
Excerpt: XLfit (idbs) was used to determine the IC50-values in inhibition experiments. The following formula was chosen to fit the data points (Langmuir Binding Isotherm): fit=((A+(B*x))+(((C−B)*(1−exp((−1*D)*x)))/D)), res=(y−fit).

[1] = Homo sapiens, HEK293, read-out: Cellular IC50 HEK 293
[2] = Homo sapiens, HEK293, read-out: Cellular IC50 HEK293
[3] = Homo sapiens, HEK293; read-out: Cellular IC50 HEK 293
[4] = Homo sapiens, HEK293; read-out: Cellular IC50 HEK293

SMILES | pIC50 [1] | pIC50 [2] | pIC50 [3] | pIC50 [4]
CCOc1ccc(-c2nnc([C@H]3C[C@H](NC(=O)c4cccc(C(=O)N5CCC5)n4)C3)n2-c2ccccc2F)nc1 [Example 10, 6-(azetidine-1-carbonyl)-N-(trans-3-(5-(5-ethoxypyridin-2-yl)-4-((S)-2-fluorophenyl)-4H-1,2,4-triazol-3-yl)cyclobutyl)picolinamide] | 7.39 | 7.39 |  | 
CCOc1ccc(-c2nnc([C@H]3C[C@H](NC(=O)c4cc[n+]([O-])c5cc(F)cnc45)C3)n2-c2ccccc2F)nc1 [Example 29, 4-((trans-3-(5-(5-ethoxypyridin-2-yl)-4-(2-fluorophenyl)-4H-1,2,4-triazol-3-yl)cyclobutyl)carbamoyl)-7-fluoro-1,5-naphthyridine 1-oxide] |  |  | 8.55 | 8.55
CCOc1ccc(-c2nnc([C@H]3C[C@H](NC(=O)c4cccc5c4nc(C)c(C)[n+]5[O-])C3)n2-c2ccccc2F)nc1 [Example 24, 5-((trans-3-(5-(5-ethoxypyridin-2-yl)-4-(2-fluorophenyl)-4H-1,2,4-triazol-3-yl)cyclobutyl)carbamoyl)-2,3-dimethylquinoxaline 1-oxide] | 8.43 | 8.43 |  | 
CCOc1ccc(-c2nnc([C@H]3C[C@H](NC(=O)c4cc[n+]([O-])cc4)C3)n2-c2ccccc2F)nc1 [Example 19, 4-((trans-3-(5-(5-ethoxypyridin-2-yl)-4-(2-fluorophenyl)-4H-1,2,4-triazol-3-yl)cyclobutyl)carbamoyl)pyridine 1-oxide] |  |  | 7.47 | 7.47
CCOc1ccc(-c2nnc([C@H]3C[C@H](NC(=O)c4cccc5cc(O)ccc45)C3)n2-c2ccccc2F)nc1 [Example 12] |  |  | < 5.00 | < 5.00
CCOc1ccc(-c2nnc([C@H]3C[C@H](NC(=O)c4cccc(C(=O)NC)n4)C3)n2-c2ccccc2F)nc1 [Example 8, N2-(trans-3-(5-(5-ethoxypyridin-2-yl)-4-((S)-2-fluorophenyl)-4H-1,2,4-triazol-3-yl)cyclobutyl)-N6-methylpyridine-2,6-dicarboxamide] |  |  | 7.68 | 7.68
CCOc1ccc(-c2nnc([C@H]3C[C@H](NC(=O)c4cccc(S(N)(=O)=O)c4)C3)n2-c2ccccc2F)nc1 [Example 16, N-(trans-3-(5-(5-ethoxypyridin-2-yl)-4-(2-fluorophenyl)-4H-1,2,4-triazol-3-yl)cyclobutyl)-3-sulfamoylbenzamide] |  |  | 5.64 | 5.65
CCOc1ccc(-c2nnc([C@H]3C[C@H](NC(=O)c4cccc(=O)[nH]4)C3)n2-c2ccccc2F)nc1 [Example 11, N-(trans-3-(5-(5-ethoxypyridin-2-yl)-4-(2-fluorophenyl)-4H-1,2,4-triazol-3-yl)cyclobutyl)-6-oxo-1,6-dihydropyridine-2-carboxamide] |  |  | 5.55 | 5.56
CCOc1ccc(-c2nnc([C@H]3C[C@H](NC(=O)c4cccc(C(=O)N(C)C)n4)C3)n2-c2ccccc2F)nc1 [Example 9] |  |  | 6.72 | 6.73
CCOc1ccc(-c2nnc([C@H]3C[C@H](NC(=O)c4cccc(O)c4)C3)n2-c2ccccc2F)nc1 [Example 15, N-(trans-3-(5-(5-ethoxypyridin-2-yl)-4-(2-fluorophenyl)-4H-1,2,4-triazol-3-yl)cyclobutyl)-3-hydroxybenzamide] |  |  | 6.89 | 6.89
CCOc1ccc(-c2nnc([C@H]3C[C@H](NC(=O)c4cccc(C(N)=O)n4)C3)n2-c2ccccc2F)nc1 [Example 7, N-(trans-3-(5-(5-ethoxypyridin-2-yl)-4-(2-fluorophenyl)-4H-1,2,4-triazol-3-yl)cyclobutyl)pyridine-2,6-dicarboxamide] |  |  | 7.15 | 7.15
CCOc1ccc(-c2nnc([C@H]3C[C@H](NC(=O)c4cccc5[nH]c(=O)ccc45)C3)n2-c2ccccc2F)nc1 [Example 13, N-(trans-3-(5-(5-ethoxypyridin-2-yl)-4-(2-fluorophenyl)-4H-1,2,4-triazol-3-yl)cyclobutyl)-2-oxo-1,2-dihydroquinoline-5-carboxamide] |  |  | < 5.00 | < 5.00
